Test results taken from ChEMBL document CHEMBL5724806, “Unraveling interindividual differences and functional consequences of gut microbial metabolism of immunosuppressants” (2024).

Experiments:
Type in all cases: ADME
[1] = The drug is tested on Faecalibacterium prausnitzii strain: DSM17677 for biotransformation under anaerobic condition. The drug concentrations were measured over 6 timepoints collected between 0 and 12 hours of incubation by liquid-chromatography-coupled mass spectrometry (LC–MS); parameters: dose 5 uM, timepoint 0, 1.5, 3, 6, 9, 12 hours; conditions: faecalibacterium duncaniae, 5 µM
[2] = The drug is tested on the gut metagenome community of T-01 with ENA study accession number: PRJEB31790 for biotransformation under anaerobic condition. The drug concentrations were measured over 7 timepoints collected between 0 and 12 hours of incubation by liquid-chromatography-coupled mass spectrometry (LC–MS); parameters: dose 5 uM, timepoint 0, 0.75, 1.5, 3, 6, 9, 12 hours; conditions: 5 µM
[3] = The drug is tested on Streptococcus mitis strain: DSM12643 for biotransformation under microaerobic condition. The drug concentrations were measured over 6 timepoints collected between 0 and 12 hours of incubation by liquid-chromatography-coupled mass spectrometry (LC–MS); parameters: dose 5 uM, timepoint 0, 1.5, 3, 6, 9, 12 hours; conditions: 5 µM
[4] = The drug is tested on the gut metagenome community of P-03 with ENA study accession number: PRJEB31790 for biotransformation under microaerobic condition. The drug concentrations were measured over 7 timepoints collected between 0 and 12 hours of incubation by liquid-chromatography-coupled mass spectrometry (LC–MS); parameters: dose 5 uM, timepoint 0, 0.75, 1.5, 3, 6, 9, 12 hours; conditions: 5 µM
[5] = The drug is tested on Gemella morbillorum strain: DSM20572 for biotransformation under microaerobic condition. The drug concentrations were measured over 6 timepoints collected between 0 and 12 hours of incubation by liquid-chromatography-coupled mass spectrometry (LC–MS); parameters: dose 5 uM, timepoint 0, 1.5, 3, 6, 9, 12 hours; conditions: 5 µM
[6] = The drug is tested on Lactobacillus gasseri strain: DSM20243 for biotransformation under microaerobic condition. The drug concentrations were measured over 6 timepoints collected between 0 and 12 hours of incubation by liquid-chromatography-coupled mass spectrometry (LC–MS); parameters: dose 5 uM, timepoint 0, 1.5, 3, 6, 9, 12 hours; conditions: 5 µM
[7] = The drug is tested on Clostridium bolteae strain: DSM15670 for biotransformation under anaerobic condition. The drug concentrations were measured over 6 timepoints collected between 0 and 12 hours of incubation by liquid-chromatography-coupled mass spectrometry (LC–MS); parameters: dose 5 uM, timepoint 0, 1.5, 3, 6, 9, 12 hours; conditions: enterocloster bolteae, 5 µM
[8] = The drug is tested on Lactobacillus paracasei strain: ATCC27092 for biotransformation under anaerobic condition. The drug concentrations were measured over 6 timepoints collected between 0 and 12 hours of incubation by liquid-chromatography-coupled mass spectrometry (LC–MS); parameters: dose 5 uM, timepoint 0, 1.5, 3, 6, 9, 12 hours; conditions: lacticaseibacillus paracasei, 5 µM
[9] = The drug is tested on Parabacteroides distasonis strain: DSM20701 for biotransformation under anaerobic condition. The drug concentrations were measured over 6 timepoints collected between 0 and 12 hours of incubation by liquid-chromatography-coupled mass spectrometry (LC–MS); parameters: dose 5 uM, timepoint 0, 1.5, 3, 6, 9, 12 hours; conditions: 5 µM
[10] = The drug is tested on the gut metagenome community of A-01 with ENA study accession number: PRJEB31790 for biotransformation under anaerobic condition. The drug concentrations were measured over 7 timepoints collected between 0 and 12 hours of incubation by liquid-chromatography-coupled mass spectrometry (LC–MS); parameters: dose 5 uM, timepoint 0, 0.75, 1.5, 3, 6, 9, 12 hours; conditions: 5 µM
[11] = The drug is tested on Lactobacillus gasseri strain: DSM20243 for biotransformation under anaerobic condition. The drug concentrations were measured over 6 timepoints collected between 0 and 12 hours of incubation by liquid-chromatography-coupled mass spectrometry (LC–MS); parameters: dose 5 uM, timepoint 0, 1.5, 3, 6, 9, 12 hours; conditions: 5 µM
[12] = The drug is tested on Lactobacillus fermentum strain: DSM20052 for biotransformation under microaerobic condition. The drug concentrations were measured over 6 timepoints collected between 0 and 12 hours of incubation by liquid-chromatography-coupled mass spectrometry (LC–MS); parameters: dose 5 uM, timepoint 0, 1.5, 3, 6, 9, 12 hours; conditions: limosilactobacillus fermentum, 5 µM
[13] = The drug is tested on Streptococcus mitis strain: DSM12643 for biotransformation under anaerobic condition. The drug concentrations were measured over 6 timepoints collected between 0 and 12 hours of incubation by liquid-chromatography-coupled mass spectrometry (LC–MS); parameters: dose 5 uM, timepoint 0, 1.5, 3, 6, 9, 12 hours; conditions: 5 µM
[14] = The drug is tested on the gut metagenome community of P-01 with ENA study accession number: PRJEB31790 for biotransformation under microaerobic condition. The drug concentrations were measured over 7 timepoints collected between 0 and 12 hours of incubation by liquid-chromatography-coupled mass spectrometry (LC–MS); parameters: dose 5 uM, timepoint 0, 0.75, 1.5, 3, 6, 9, 12 hours; conditions: 5 µM
[15] = The drug is tested on Bifidobacterium adolescentis strain: DSM20083 for biotransformation under anaerobic condition. The drug concentrations were measured over 6 timepoints collected between 0 and 12 hours of incubation by liquid-chromatography-coupled mass spectrometry (LC–MS); parameters: dose 5 uM, timepoint 0, 1.5, 3, 6, 9, 12 hours; conditions: 5 µM
[16] = The drug is tested on the gut metagenome community of A-10 with ENA study accession number: PRJEB31790 for biotransformation under anaerobic condition. The drug concentrations were measured over 7 timepoints collected between 0 and 12 hours of incubation by liquid-chromatography-coupled mass spectrometry (LC–MS); parameters: dose 5 uM, timepoint 0, 0.75, 1.5, 3, 6, 9, 12 hours; conditions: 5 µM
[17] = The drug is tested on Collinsella aerofaciens strain: DSM3979 for biotransformation under anaerobic condition. The drug concentrations were measured over 6 timepoints collected between 0 and 12 hours of incubation by liquid-chromatography-coupled mass spectrometry (LC–MS); parameters: dose 5 uM, timepoint 0, 1.5, 3, 6, 9, 12 hours; conditions: 5 µM
[18] = The drug is tested on Ruminococcus gnavus strain: ATCC29149 for biotransformation under anaerobic condition. The drug concentrations were measured over 6 timepoints collected between 0 and 12 hours of incubation by liquid-chromatography-coupled mass spectrometry (LC–MS); parameters: dose 5 uM, timepoint 0, 1.5, 3, 6, 9, 12 hours; conditions: mediterraneibacter gnavus, 5 µM
[19] = The drug is tested on Actinomyces graevenitzii strain: DSM15540 for biotransformation under microaerobic condition. The drug concentrations were measured over 6 timepoints collected between 0 and 12 hours of incubation by liquid-chromatography-coupled mass spectrometry (LC–MS); parameters: dose 5 uM, timepoint 0, 1.5, 3, 6, 9, 12 hours; conditions: 5 µM
[20] = The drug is tested on Streptococcus sanguinis strain: DSM20567 for biotransformation under anaerobic condition. The drug concentrations were measured over 6 timepoints collected between 0 and 12 hours of incubation by liquid-chromatography-coupled mass spectrometry (LC–MS); parameters: dose 5 uM, timepoint 0, 1.5, 3, 6, 9, 12 hours; conditions: 5 µM
[21] = The drug is tested on the gut metagenome community of A-03 with ENA study accession number: PRJEB31790 for biotransformation under anaerobic condition. The drug concentrations were measured over 7 timepoints collected between 0 and 12 hours of incubation by liquid-chromatography-coupled mass spectrometry (LC–MS); parameters: dose 5 uM, timepoint 0, 0.75, 1.5, 3, 6, 9, 12 hours; conditions: 5 µM
[22] = The drug is tested on the gut metagenome community of A-09 with ENA study accession number: PRJEB31790 for biotransformation under anaerobic condition. The drug concentrations were measured over 7 timepoints collected between 0 and 12 hours of incubation by liquid-chromatography-coupled mass spectrometry (LC–MS); parameters: dose 5 uM, timepoint 0, 0.75, 1.5, 3, 6, 9, 12 hours; conditions: 5 µM
[23] = The drug is tested on Clostridium scindens strain: DSM5676 for biotransformation under anaerobic condition. The drug concentrations were measured over 6 timepoints collected between 0 and 12 hours of incubation by liquid-chromatography-coupled mass spectrometry (LC–MS); parameters: dose 5 uM, timepoint 0, 1.5, 3, 6, 9, 12 hours; conditions: 5 µM
[24] = The drug is tested on Streptococcus anginosus strain: DSM20563 for biotransformation under anaerobic condition. The drug concentrations were measured over 6 timepoints collected between 0 and 12 hours of incubation by liquid-chromatography-coupled mass spectrometry (LC–MS); parameters: dose 5 uM, timepoint 0, 1.5, 3, 6, 9, 12 hours; conditions: 5 µM
[25] = The drug is tested on Blautia hansenii strain: DSM20583 for biotransformation under anaerobic condition. The drug concentrations were measured over 6 timepoints collected between 0 and 12 hours of incubation by liquid-chromatography-coupled mass spectrometry (LC–MS); parameters: dose 5 uM, timepoint 0, 1.5, 3, 6, 9, 12 hours; conditions: 5 µM
[26] = The drug is tested on Actinomyces naeslundi strain: DSM43013 for biotransformation under microaerobic condition. The drug concentrations were measured over 6 timepoints collected between 0 and 12 hours of incubation by liquid-chromatography-coupled mass spectrometry (LC–MS); parameters: dose 5 uM, timepoint 0, 1.5, 3, 6, 9, 12 hours; conditions: actinomyces naeslundii, 5 µM

Measured: Bacterial Biotransformation

CCOc1nc2cccc(C(=O)O)c2n1Cc1ccc(-c2ccccc2-c2nnn[nH]2)cc1
Compound NOT metabolized: all assays above

CCOC(=O)C1=C(COCCN)NC(C)=C(C(=O)OC)C1c1ccccc1Cl (stereo not given) [AMLODIPINE]
not listed: [7] | [23]
Compound NOT metabolized: all other assays above
